Source: ChEMBL document CHEMBL6078668, “Synthesis and biological evaluation of lappaconitine analogues as potential anti-neuroinflammatory agents by side chain modification and scaffold hopping strategy” (Bioorg Med Chem, 2025)

Legend:
[1] = Cytotoxicity against C57BL/6 mouse BV-2 cells assessed as survival rate at 30 uM incubated for 24 hrs by MTT assay relative to control; format: toxicity, cell-based; settings: read-out: Survival
BV-2 = assay: Anti-neuroinflammatory activity against LPS-stimulated C57BL/6 mouse BV-2 cells assessed as inhibition of NO release at 30 uM preincubated with compound for 4 hrs followed by LPS addition and measured after 24 hrs by Griess reagent based assay relative to control; format: functional; settings: C57BL/6, BV-2, time 28 hrs

Structure (SMILES)	viability at 24 h, 30 µM [1] [%]	inhibition at 30 µM (BV-2) [%]
CCN1C[C@]2(OC(=O)c3ccccc3NC(=O)CC(C)C)CC[C@H](OC)[C@]34C1[C@@H](C[C@H]23)[C@@]1(O)C[C@H](OC)[C@H]2C[C@@H]4[C@]1(O)[C@H]2OC	102	16.7
CCN1C[C@]2(OC(=O)c3ccccc3NC(=O)S(=O)(=O)c3ccc(C)cc3F)CC[C@H](OC)[C@]34C1[C@@H](C[C@H]23)[C@@]1(O)C[C@H](OC)[C@H]2C[C@@H]4[C@]1(O)[C@H]2OC	106	26.4
CCN1C[C@]2(OC(=O)c3ccccc3NC(=O)S(=O)(=O)c3cccc4ccccc34)CC[C@H](OC)[C@]34C1[C@@H](C[C@H]23)[C@@]1(O)C[C@H](OC)[C@H]2C[C@@H]4[C@]1(O)[C@H]2OC	105	30.5
CCN1C[C@]2(OC(=O)c3ccccc3NC(=O)S(=O)(=O)c3ccccn3)CC[C@H](OC)[C@]34C1[C@@H](C[C@H]23)[C@@]1(O)C[C@H](OC)[C@H]2C[C@@H]4[C@]1(O)[C@H]2OC	100	29.9
CCCCOC(=O)c1ccccc1NS(=O)(=O)c1ccc(Br)s1	104	34.6
CCN1C[C@]2(COC(=O)c3ccccc3N)CC[C@H](OC)[C@]34C1[C@@H](C[C@H]23)[C@@]1(O)C[C@H](OC)[C@H]2C[C@@H]4[C@]1(O)[C@H]2OC	91.9	22
CCN1C[C@]2(OC(=O)c3ccccc3NC(=O)S(=O)(=O)c3ccc(Cl)cc3F)CC[C@H](OC)[C@]34C1[C@@H](C[C@H]23)[C@@]1(O)C[C@H](OC)[C@H]2C[C@@H]4[C@]1(O)[C@H]2OC	99.8	14.9
CCN1C[C@]2(COC(=O)c3ccccc3NS(=O)(=O)c3ccc(Br)s3)CC[C@H](OC)[C@]34C1[C@@H](C[C@H]23)[C@@]1(O)C[C@H](OC)[C@H]2C[C@@H]4[C@]1(O)[C@H]2OC	97.8	34.7
CCN1C[C@]2(OC(=O)c3ccccc3NC(=O)c3ccc(Cl)cc3)CC[C@H](OC)[C@]34C1[C@@H](C[C@H]23)[C@@]1(O)C[C@H](OC)[C@H]2C[C@@H]4[C@]1(O)[C@H]2OC	105	32.3
CCN1C[C@]2(OC(=O)c3ccccc3NC(=O)S(=O)(=O)c3ccc4ccccc4c3)CC[C@H](OC)[C@]34C1[C@@H](C[C@H]23)[C@@]1(O)C[C@H](OC)[C@H]2C[C@@H]4[C@]1(O)[C@H]2OC	100	53.1
CCN1C[C@]2(OC(=O)c3ccccc3NC(=O)C(C)C)CC[C@H](OC)[C@]34C1[C@@H](C[C@H]23)[C@@]1(O)C[C@H](OC)[C@H]2C[C@@H]4[C@]1(O)[C@H]2OC	105	8.9
CCN1C[C@]2(OC(=O)c3ccccc3NC(=O)C3CCOCC3)CC[C@H](OC)[C@]34C1[C@@H](C[C@H]23)[C@@]1(O)C[C@H](OC)[C@H]2C[C@@H]4[C@]1(O)[C@H]2OC	103	36.3
CCCCCCC(=O)Nc1ccccc1C(=O)O[C@@]12CC[C@H](OC)[C@]34C([C@@H](C[C@H]13)[C@@]1(O)C[C@H](OC)[C@H]3C[C@@H]4[C@]1(O)[C@H]3OC)N(CC)C2	100	30
CCN1C[C@]2(OC(=O)c3ccccc3NC(=O)c3cccc(Br)c3)CC[C@H](OC)[C@]34C1[C@@H](C[C@H]23)[C@@]1(O)C[C@H](OC)[C@H]2C[C@@H]4[C@]1(O)[C@H]2OC	100	44.1
CCN1C[C@]2(COC(=O)c3ccccc3NS(=O)(=O)c3cccc(F)c3)CC[C@H](OC)[C@]34C1[C@@H](C[C@H]23)[C@@]1(O)C[C@H](OC)[C@H]2C[C@@H]4[C@]1(O)[C@H]2OC	102	20.1
CCN1C[C@]2(OC(=O)c3ccccc3NC(=O)S(=O)(=O)c3cccc(Br)c3)CC[C@H](OC)[C@]34C1[C@@H](C[C@H]23)[C@@]1(O)C[C@H](OC)[C@H]2C[C@@H]4[C@]1(O)[C@H]2OC	102	10
CCN1C[C@]2(OC(=O)c3ccccc3NC(=O)S(=O)(=O)c3ccc(C(C)=O)cc3)CC[C@H](OC)[C@]34C1[C@@H](C[C@H]23)[C@@]1(O)C[C@H](OC)[C@H]2C[C@@H]4[C@]1(O)[C@H]2OC	92.6	18
CCN1C[C@]2(OC(=O)c3ccccc3NC(=O)S(=O)(=O)c3cccc([N+](=O)[O-])c3)CC[C@H](OC)[C@]34C1[C@@H](C[C@H]23)[C@@]1(O)C[C@H](OC)[C@H]2C[C@@H]4[C@]1(O)[C@H]2OC	106	11.7
CCN1C[C@]2(OC(=O)c3ccccc3NC(=O)S(=O)(=O)c3cccc4cccnc34)CC[C@H](OC)[C@]34C1[C@@H](C[C@H]23)[C@@]1(O)C[C@H](OC)[C@H]2C[C@@H]4[C@]1(O)[C@H]2OC	103	46.2
CCN1C[C@]2(OC(=O)c3ccccc3NC(=O)S(=O)(=O)c3ccc(F)cc3C)CC[C@H](OC)[C@]34C1[C@@H](C[C@H]23)[C@@]1(O)C[C@H](OC)[C@H]2C[C@@H]4[C@]1(O)[C@H]2OC	92.7	32.2
CCN1C[C@]2(OC(=O)c3ccccc3NC(=O)S(=O)(=O)/C=C/c3ccccc3)CC[C@H](OC)[C@]34C1[C@@H](C[C@H]23)[C@@]1(O)C[C@H](OC)[C@H]2C[C@@H]4[C@]1(O)[C@H]2OC	108	29.4
CCN1C[C@]2(OC(=O)c3ccccc3NC(=O)S(=O)(=O)c3ccc4c(c3)OCC4)CC[C@H](OC)[C@]34C1[C@@H](C[C@H]23)[C@@]1(O)C[C@H](OC)[C@H]2C[C@@H]4[C@]1(O)[C@H]2OC	96.3	9.9
CCN1C[C@]2(OC(=O)c3ccccc3NC(=O)S(=O)(=O)c3cc(Cl)ccc3F)CC[C@H](OC)[C@]34C1[C@@H](C[C@H]23)[C@@]1(O)C[C@H](OC)[C@H]2C[C@@H]4[C@]1(O)[C@H]2OC	95.1	36.1
CCN1C[C@]2(OC(=O)c3ccccc3NC(=O)S(=O)(=O)c3cccc(OC)c3)CC[C@H](OC)[C@]34C1[C@@H](C[C@H]23)[C@@]1(O)C[C@H](OC)[C@H]2C[C@@H]4[C@]1(O)[C@H]2OC	102	23.5
CCN1C[C@]2(OC(=O)c3ccccc3NC(=O)S(=O)(=O)c3cc(OC)ccc3OC)CC[C@H](OC)[C@]34C1[C@@H](C[C@H]23)[C@@]1(O)C[C@H](OC)[C@H]2C[C@@H]4[C@]1(O)[C@H]2OC	102	26.3
CCN1C[C@]2(OC(=O)c3ccccc3NC(=O)S(=O)(=O)c3cncc(Br)c3)CC[C@H](OC)[C@]34C1[C@@H](C[C@H]23)[C@@]1(O)C[C@H](OC)[C@H]2C[C@@H]4[C@]1(O)[C@H]2OC	91.5	20.3
COC(=O)c1ccccc1NS(=O)(=O)c1cccc(F)c1	106	38.5
